Experimental data as given in patent US11833187B2, “Materials and methods for extracellular vessicle-associated diseases” (THE BRIGHAM AND WOMEN'S HOSPITAL, INC., priority 2017, dated 2023).
Entries after “also recorded” stand apart in the source; their conditions may differ. Peptide text beside a SMILES is read from it. * marks the point of attachment. Cbz = O=C(OCc1ccccc1)*

Tests used:
[1] = test system: FLAG-sortilin ICD+TMD; experiment: Reducing western blotting of FLAG-sortilin ICD+TMD protein expression in stably overexpressing HEK293 cells; type: cell-based, human; conditions: for protein expression of FLAG-sortilin ICD+TMD: MG-132 20 μmol/L or chloroquine 10 μmol/L for 7 hours, n=3
Procedure: (§1) Cells, EVs and the supernatant of culture medium were lysed with IP lysis buffer (Thermo Fisher Scientific Inc., Cat #87787) containing protease inhibitor (Roche Diagnostics, Cat #04693159001). Protein concentration was measured using the bicinchoninic acid (BCA) method (Thermo Fisher Scientific Inc., Cat #23225). Laemmli buffer (Boston Bioproduct; non-reducing, Cat #BP-110NR; reducing, Cat #BP-111R) was added to the lysate, and boiled at 95° C. for 5 minutes. Total protein was separated by 4-12% SDS-PAGE and transferred to polyvinylidene difluoride (PVDF) membrane using iBlot Western blotting system (Life Technologies) or conventional wet method. Primary antibodies against human sortilin ICD (rabbit 1:1000; Abcam plc., Cat #ab16640, Lot #GR185198-1), human (3-actin (mouse 1:2000; Novus Biologicals, LLC, Cat #NB600-501, Lot #014M4759), FLAG (rabbit 1:1000; Sigma, Cat #F4725, Lot #093M4798, mouse (M2) 1:1000; Sigma, Cat #F1804, Lot #SLBJ4607V), 6×His (mouse 1:1000; Abcam plc., Cat #ab18184, Lot #GR247674-1).
(§2) HEK293 cells were purchased from American Type Culture Collection (ATCC) and maintained in Eagle's minimum essential medium (EMEM, ATCC, Cat #30-2003) supplemented with 10% fetal bovine serum (FBS), penicillin (100 U/mL), and streptomycin (100 μg/mL) at 37° C. in a humidified atmosphere of 5% CO2. For transfection in HEK293 cells, Lipofectamine 2000 reagent (Thermo Fisher Scientific Inc., Cat #11668019) was used, according to the manufacturer's protocol. HEK293 cells stably expressing FLAG-sortilin Full, ECD+TMD, ICD+TMD and sortilin-3×FLAG were obtained by transfection with pcDNA3.1(+) FLAG-sortilin Full, pcDNA3.1(+) FLAG-sortilin-ECD+TMD, pcDNA3.1(+) FLAG-sortilin ICD+TMD, and expression vector of sortilin-3×FLAG (GeneCopoeia, Inc., Cat # EX-M0397-M14), respectively. These cell lines were maintained in EMEM supplemented with 10% FBS, penicillin/streptomycin, and geneticin 800 μg/mL. Cells were incubated in the incubator with MG-132 and chloroquine during the indicated time, and with 2-FPA and sortilin propeptide for 24 hours, respectively.

[2] = target: T1, FLAG-sortilin (Homo sapiens, UniProt Q99523); experiment: Non-reducing western blotting of sortilin dimerization in FLAG-sortilin HEK293 cells; type: cell-based; conditions: for sortilin homodimers of low molecular weight in the cells: HEK293 cells stably overexpressing FLAG-sortilin, 24-h incubation, n=3; for dimerization of sortilin in the cells: FLAG-sortilin HEK293 cells, propeptide 100 nmol/L, 24 hours, n=2
T1 construct: pcDNA3.1(+) FLAG-sortilin full-length (Full), amino acids (aa) 1-831; expressed in transfected cells; cells and their extracellular vesicles
T1 sequence (Q99523 78-831): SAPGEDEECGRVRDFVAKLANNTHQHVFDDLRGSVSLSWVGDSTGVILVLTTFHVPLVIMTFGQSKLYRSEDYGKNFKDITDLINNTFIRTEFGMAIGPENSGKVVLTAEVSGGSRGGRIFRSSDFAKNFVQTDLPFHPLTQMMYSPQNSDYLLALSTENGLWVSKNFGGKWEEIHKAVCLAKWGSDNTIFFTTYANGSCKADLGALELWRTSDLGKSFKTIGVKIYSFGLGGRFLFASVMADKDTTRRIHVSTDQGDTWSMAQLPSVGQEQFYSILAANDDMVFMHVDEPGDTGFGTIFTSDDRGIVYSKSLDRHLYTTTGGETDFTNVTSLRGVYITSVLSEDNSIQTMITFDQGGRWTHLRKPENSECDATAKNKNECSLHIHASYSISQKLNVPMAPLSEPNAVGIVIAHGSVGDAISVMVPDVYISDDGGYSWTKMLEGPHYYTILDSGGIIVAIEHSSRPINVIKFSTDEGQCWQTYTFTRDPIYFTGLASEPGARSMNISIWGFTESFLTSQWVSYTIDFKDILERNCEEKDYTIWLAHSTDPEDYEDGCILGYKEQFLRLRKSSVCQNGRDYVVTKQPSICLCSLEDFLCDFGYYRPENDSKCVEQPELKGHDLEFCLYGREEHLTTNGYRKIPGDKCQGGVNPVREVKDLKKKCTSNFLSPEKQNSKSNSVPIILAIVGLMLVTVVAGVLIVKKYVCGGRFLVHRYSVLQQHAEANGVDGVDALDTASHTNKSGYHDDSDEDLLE
Procedure: as §1, §2

[3] = target: T1, FLAG-sortilin; experiment: Non-reducing western blotting of sortilin dimerization in extracellular vesicles of FLAG-sortilin HEK293 cells; type: cell-based; conditions: for sortilin homodimers (dimerization) in the extracellular vesicles: EVs of HEK293 cells stably overexpressing FLAG-sortilin, 24-h incubation, n=3; for dimerization of sortilin in the extracellular vesicles: EVs of FLAG-sortilin HEK293 cells, propeptide 100 nmol/L, 24 hours, n=2
Procedure: as §1, §2
Separation of culture medium to supernatant and EVs was performed according to the protocol previously reported (41). Culture medium underwent centrifugation at 1,000 rpm for 5 minutes to remove cell debris. Then, the supernatant and EVs were separated by ultracentrifugation at 100,000 g for 40 minutes at 4° C. (Optima Max Ultracentrifuge, Beckman Coulter).

[4] = listed as palmitoylation inhibitor

## CC(C)C[C@@H](C=O)NC(=O)[C@H](CC(C)C)NC(=O)[C@H](CC(C)C)NC(=O)OCc1ccccc1 [MG-132] (Cbz-Leu-Leu-Leu-aldehyde)
[1]
  protein expression of FLAG-sortilin ICD+TMD: increased the protein expression of FLAG-sortilin ICD+TMD
[1]; MG-132 2-20 μmol/L for 7 or 24 hours
  protein expression of FLAG-sortilin ICD+TMD, time and concentration dependence: increased protein expression of FLAG-sortilin ICD+TMD in a time- and concentration-dependent manner

## Chloroquine diphosphate salt
[1]
  protein expression of FLAG-sortilin ICD+TMD: did not

## CCCCCCCCCCCCCCC(F)C(=O)O (stereo not drawn) [2-FPA, 2-fluoropalmitic acid]
[2]
  sortilin homodimers of low molecular weight in the cells: increased only homodimers of lower molecular size in the cells; also recorded: increased sortilin homodimers of low molecular weight
[2]; [4]
  sortilin homodimers of low molecular weight in the cells: increased sortilin dimerization
[3]
  sortilin homodimers (dimerization) in the extracellular vesicles: increased dimerization of FLAG-sortilin in the EVs; also recorded: increased sortilin homodimers of low molecular weight
[3]; [4]
  sortilin homodimers (dimerization) in the extracellular vesicles: increased transport of dimerized sortilin to EVs

## sortilin-derived propeptide: Sortilin propeptide (SEQ ID NO: 2), purchased from Phoenix Pharmaceuticals; the claimed inhibitor of sortilin dimerization (QDRLDAPPPPAAPLPRWSGPIGVSWGLRAAAAGGAFPRGGRWRR; listed as Homo sapiens)
[2]
  dimerization of sortilin in the cells: did not affect dimerization in the cells
[2]; listed as propeptide
  dimerization of sortilin in the cells: a decrease in the cells was not observed
[2]; HEK293 cell line, propeptide treatment, summary statement
  sortilin dimerization (formation of homodimers), compartment not given: reduced them; also recorded: sortilin dimerization was decreased
[3]
  dimerization of sortilin in the extracellular vesicles: decreased sortilin homodimers within EVs; also recorded: decreases sortilin homodimers in EVs; also recorded: decreased dimerization in the extracellular vesicles
[3]; listed as propeptide
  dimerization of sortilin in the extracellular vesicles: decreased dimerization of sortilin in the extracellular vesicles
